What was measured:
[1] = tested on: spared nerve injury model of peripheral neuropathic pain; experiment: Spared Nerve Injury model (SNI model), treatment day 10 to 21 postoperatively (Example 1); assay type: in vivo, rats; settings: for reduction of allodynia: day 10 to 21 postoperatively
Text: (§1) The Chronic Constriction Injury model (CCI model) [Bennet G J, Xie Y K: A peripheral mononeuropathy in rat that produces disorders of pain sensation like those seen in man. Pain 1988, 33:87-107] and the Spared Nerve Injury model (SNI model) [Decosterd I, Woolf C J: Spared Nerve injury: an animal model of persistent peripheral neuropathic pain. Pain 2000, 87:149-158] were used as animal models that show essential elements of the clinical pain syndromes in the presence of neuropathies. In both models, the animals sustain defined nerve damage by surgical means. The pain behavior of the animals can be used to quantitatively measure the efficacy of substances in pain-associated neuropathies. The investigations were carried out on rats according to the published models. […] The same is not true of most other species of laboratory animals.
(§2) In a first series of experiments, the animals sustained a nerve lesion by surgical means according to the SNI model and according to the CCI model. From day 10 to day 21 postoperatively, groups of 12 animals each received intraperitoneal administrations of the test substances twice daily. In tests according to the SNI model, in each application, 2.5, 4.5 or 9 mg tarenflurbil (referred to as RF2.5, RF4.5, and RF9), 4.5 mg S-flurbiprofen (SF4.5), pure vehicle (vehicle—as control) or 25 mg gabapentin (Gaba25—as reference substance), each per kg of body weight, were administered. The behavioral parameters that are typical of pain-associated neuropathies were measured, namely mechanical allodynia using Frey's aestesiometer, cold allodynia using the acetone test, and cold hyperalgesia using the cold plate at 2° C. In tests according to the CCI model, 4.5 or 9 mg/kg body weight of tarenflurbil (RF4.5 and RF9), 9 mg/kg body weight S-flurbiprofen (SF9) or vehicle (vehicle) were administered per group. As before, mechanical/static allodynia, cold allodynia and cold hyperalgesia were measured using Frey's hair test, the acetone test, and the cold plate at 2° C., respectively.

[2] = tested on: chronic constriction injury model of peripheral neuropathic pain; experiment: Chronic Constriction Injury model (CCI model), treatment day 10 to 21 postoperatively (Example 1); assay type: in vivo; settings: rats
Text: as §1, §2

[3] = tested on: spared nerve injury model of peripheral neuropathic pain; experiment: SNI model, treatment from the first postoperative day for two weeks (Example 2); assay type: in vivo, rats
Description: In another series of experiments, animals having sustained nerve damage according to the SNI model were treated twice daily with intraperitoneal doses of 9 mg/kg body weight tarenflurbil or vehicle from the first postoperative day and for a period of two weeks. Both the mechanical dynamic allodynia (on the ipsilateral and on the contralateral side) and the cold allodynia (ipsilateral only) were measured by means of Frey's aesthesiometer and the cold plate at 10° C., respectively.

[4] = tested on: rats that had not sustained damage; experiment: Single dose in rats that had not sustained damage (Example 3); assay type: in vivo; settings: undamaged rats, single i.p. dose of 9 mg/kg, up to 6 hours after application
Description: For qualification of the series' of experiments mentioned above, a single dose of 9 mg/kg body weight tarenflurbil (RF9) or vehicle (vehicle) was applied intraperitoneally in another series of experiments on rats that had not sustained damage and the mechanical allodynia and the heat sensitivity were measured for up to 6 hours after the application using Frey's aesthesiometer and the Hargreaves model, respectively. […] This means that the effects measured for tarenflurbil in Examples 1 and 2 are exclusively related to the effect in pain-associated neuropathies.

[5] = humans; cited from earlier work
[6] = rats; cited from earlier work
[7] = parameters: species or system rats; settings: rat, in vivo, ip, 4.5 mg/kg
[8] = SNI model, rats, 4.5 mg/kg twice daily i.p.
[9] = summary statement for the pharmacological models

| Structure (SMILES) | effect on allodynia compared with tarenflurbil ([1]; SNI model, rats, 25 mg/kg twice daily i.p., positive control) | reduction of allodynia [1, 8] | reduction of allodynia ([1]; SNI model, rats, 9 mg/kg twice daily i.p.) | efficacy relative to reference substance gabapentin ([1]; if dosed sufficiently, vs 25 mg/kg body weight gabapentin) | effect in models of pain-associated neuropathies (dose dependence) [1, 9] | reduction of allodynia ([2]; 4.5 mg/kg twice daily i.p.) | reduction of allodynia ([2]; 9 mg/kg twice daily i.p.) | mechanical allodynia, contralateral side, vs vehicle ([3]; 9 mg/kg twice daily i.p. from first postoperative day for two weeks) | mechanical allodynia, ipsilateral side, vs vehicle ([3]; 9 mg/kg twice daily i.p. from first postoperative day, entire treatment period of two weeks, Frey's aesthesiometer) | cold allodynia, ipsilateral side, vs vehicle ([3]; 9 mg/kg twice daily i.p. from first postoperative day, entire treatment period of two weeks, cold plate at 10° C.) | time until pain-relieving effect falls to pain intensity of the vehicle group ([3]; after completion of two weeks of 9 mg/kg twice daily i.p.) | mechanical allodynia vs vehicle ([4]; Frey's aesthesiometer) | heat sensitivity vs vehicle ([4]; Hargreaves model) | inversion of the R-form to the S-form under in vivo conditions [5] | inversion of tarenflurbil to S-flurbiprofen [6] | effect in models of pain-associated neuropathies [1, 9] | gastrointestinal bleeding [7] |
| --- | --- | --- | --- | --- | --- | --- | --- | --- | --- | --- | --- | --- | --- | --- | --- | --- | --- |
| NCC1(CC(=O)O)CCCCC1 [Gabapentin, gabapentin, reference compound] | no significant difference from tarenflurbil |  |  |  |  |  |  |  |  |  |  |  |  |  |  |  |  |
| C[C@@H](C(=O)O)c1ccc(-c2ccccc2)c(F)c1 [tarenflurbil] |  | significant reduction | significant reduction | in the range of the efficacy of 25 mg/kg body weight gabapentin | dose-dependent effect | significant reduction | significant reduction | no difference | significantly different effect from vehicle | significantly different effect from vehicle | eight days after the end of treatment | no significant differences | no significant differences | no or no more than extremely minor inversion | basically do not invert |  |  |
| C[C@H](C(=O)O)c1ccc(-c2ccccc2)c(F)c1 [S-flurbiprofen, reference compound] |  | no significant effect |  |  |  |  | no significant effect |  |  |  |  |  |  |  |  | does not show a significant effect | gastrointestinal bleeding in some animals |
